Reference: PubChem BioAssay (NCI)
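At the GI50, growth is halved. TGI denotes the concentration required for complete inhibition of growth.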

Tests used:
Test in all cases: growth of human tumour cells (NCI), 384-well format
HOP-92 NSCLC = system: HOP-92 NSCLC
UACC-62 melanoma = system: UACC-62 melanoma
SNB-75 CNS = system: SNB-75 CNS
HOP-62 NSCLC = system: HOP-62 NSCLC
HT29 colon = system: HT29 colon
A498 renal = system: A498 renal
T-47D breast = system: T-47D breast
ACHN renal = system: ACHN renal
NCI-H226 lung = system: NCI-H226 lung
NCI-H23 lung = system: NCI-H23 lung
SN12C renal = system: SN12C renal
SK-MEL-5 melanoma = system: SK-MEL-5 melanoma
UO-31 renal = system: UO-31 renal

CCCS(=O)(=O)Nc1ccc(F)c(C(=O)c2c[nH]c3ncc(-c4ccc(Cl)cc4)cc23)c1F
GI50 (HOP-92 NSCLC): 4.98 µM | TGI (HOP-92 NSCLC): 12.1 µM | GI50 (UACC-62 melanoma): 0.0345 µM | TGI (UACC-62 melanoma): 0.912 µM | GI50 (SNB-75 CNS): 5.79 µM | TGI (SNB-75 CNS): 13.3 µM | GI50 (HOP-62 NSCLC): 5.12 µM | TGI (HOP-62 NSCLC): 14.9 µM | GI50 (HT29 colon): 0.146 µM | TGI (HT29 colon): 10.4 µM | GI50 (A498 renal): 2.96 µM | TGI (A498 renal): 9.4 µM | GI50 (T-47D breast): 6.77 µM | TGI (T-47D breast): 16.9 µM | GI50 (ACHN renal): 5.39 µM | TGI (ACHN renal): 19.5 µM | GI50 (NCI-H226 lung): 7.95 µM | TGI (NCI-H226 lung): 17.2 µM | GI50 (NCI-H23 lung): 4.19 µM | TGI (NCI-H23 lung): 13.2 µM | GI50 (SN12C renal): 8.1 µM | TGI (SN12C renal): 22.5 µM | GI50 (SK-MEL-5 melanoma): 0.0794 µM | TGI (SK-MEL-5 melanoma): 1.81 µM | GI50 (UO-31 renal): 4.74 µM | TGI (UO-31 renal): 16.6 µM
